Like-named read-outs stand apart in the source and are kept apart here.
Key:
[1] = test system: Lipoprotein Lipase (Bacterial); type: biochemical, Pseudomonas sp.
[2] = biological target: T1, Pancreatic Lipase (Porcine) (Sus scrofa, UniProt P00591); type: biochemical
T1 construct: purchased Sigma L3126
T1 sequence (P00591 1-450): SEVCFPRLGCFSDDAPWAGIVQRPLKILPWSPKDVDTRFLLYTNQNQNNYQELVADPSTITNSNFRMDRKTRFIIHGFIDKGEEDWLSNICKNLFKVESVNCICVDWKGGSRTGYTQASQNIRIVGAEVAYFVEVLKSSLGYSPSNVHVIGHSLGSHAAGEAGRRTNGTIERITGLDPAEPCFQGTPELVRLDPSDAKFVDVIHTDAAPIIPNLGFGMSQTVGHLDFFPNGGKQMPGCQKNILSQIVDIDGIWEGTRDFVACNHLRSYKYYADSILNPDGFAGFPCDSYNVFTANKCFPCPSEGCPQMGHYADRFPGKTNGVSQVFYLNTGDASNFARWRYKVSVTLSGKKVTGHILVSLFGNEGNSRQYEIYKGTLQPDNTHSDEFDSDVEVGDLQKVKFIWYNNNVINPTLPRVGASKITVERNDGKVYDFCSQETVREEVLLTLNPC

[3] = test system: cannabinoid receptors; settings: cited from earlier work
[4] = biological target: T2, MAGL (Homo sapiens, UniProt Q99685); settings: cited from earlier work
T2 sequence (Q99685 1-303): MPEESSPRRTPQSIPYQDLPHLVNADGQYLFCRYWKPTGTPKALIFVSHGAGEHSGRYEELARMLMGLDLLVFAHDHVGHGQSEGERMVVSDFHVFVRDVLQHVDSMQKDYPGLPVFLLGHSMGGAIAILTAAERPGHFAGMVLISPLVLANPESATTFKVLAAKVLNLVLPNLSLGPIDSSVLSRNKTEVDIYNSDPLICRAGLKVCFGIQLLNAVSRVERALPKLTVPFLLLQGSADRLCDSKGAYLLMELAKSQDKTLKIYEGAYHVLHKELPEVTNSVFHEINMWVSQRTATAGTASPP

[5] = test system: pancreatic and extrapancreatic fat necrosis; settings: literature, cited from earlier work
[6] = test system: FAAH; settings: cited from earlier work
[7] = biological target: T3, mDAGLα (Mus musculus, UniProt Q6WQJ1); experiment: Radio-TLC assay with [14C]SAG substrate, mDAGLα; settings: for potency for mDAGLα relative to analogs of (S)-α-amino acids: 10 nM to 10 μM
T3 sequence (Q6WQJ1 1-1044): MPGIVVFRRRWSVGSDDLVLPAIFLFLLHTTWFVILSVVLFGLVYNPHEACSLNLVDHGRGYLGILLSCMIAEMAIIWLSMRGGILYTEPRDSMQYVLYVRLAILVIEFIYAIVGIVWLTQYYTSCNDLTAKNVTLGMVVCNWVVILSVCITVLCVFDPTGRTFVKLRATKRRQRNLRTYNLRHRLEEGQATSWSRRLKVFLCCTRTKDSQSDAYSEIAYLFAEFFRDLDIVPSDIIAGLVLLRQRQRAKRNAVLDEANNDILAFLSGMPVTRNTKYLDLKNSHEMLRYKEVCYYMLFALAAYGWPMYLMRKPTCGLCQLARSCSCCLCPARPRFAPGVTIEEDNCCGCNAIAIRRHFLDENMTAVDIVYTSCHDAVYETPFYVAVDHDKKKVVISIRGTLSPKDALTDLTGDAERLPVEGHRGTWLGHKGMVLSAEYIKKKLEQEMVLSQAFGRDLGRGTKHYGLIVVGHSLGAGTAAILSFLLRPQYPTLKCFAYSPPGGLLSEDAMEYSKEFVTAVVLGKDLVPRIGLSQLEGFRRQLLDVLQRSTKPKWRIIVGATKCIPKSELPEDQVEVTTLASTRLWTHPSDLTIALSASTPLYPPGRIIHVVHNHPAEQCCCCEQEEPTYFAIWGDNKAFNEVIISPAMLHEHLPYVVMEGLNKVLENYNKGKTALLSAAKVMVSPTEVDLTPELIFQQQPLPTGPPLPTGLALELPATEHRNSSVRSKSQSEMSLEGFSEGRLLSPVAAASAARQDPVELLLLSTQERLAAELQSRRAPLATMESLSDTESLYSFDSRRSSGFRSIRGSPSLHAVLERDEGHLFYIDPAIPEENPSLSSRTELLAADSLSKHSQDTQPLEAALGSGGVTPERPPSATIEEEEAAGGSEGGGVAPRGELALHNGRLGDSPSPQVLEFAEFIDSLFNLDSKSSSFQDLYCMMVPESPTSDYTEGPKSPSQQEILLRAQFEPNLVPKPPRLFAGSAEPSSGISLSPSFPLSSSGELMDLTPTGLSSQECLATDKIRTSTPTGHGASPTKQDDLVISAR

[8] = test system: DAGL; settings: cited from earlier work
[9] = intraperitoneal (IP) injections

## CCCCCCCCCCC[C@@H](C[C@@H]1OC(=O)[C@H]1CCCCCC)OC(=O)[C@H](CC(C)C)NC=O [Compound 3, tetrahydrolipstatin]
[1]; preliminary studies
  inhibition of bacterial lipoprotein lipase, FRET: potent inhibition
[1]; reporter compound (17), read-out: apparent IC50 with lipoprotein lipase, FRET assay
  IC50: ~0.1 µM
[2]; preliminary studies
  inhibition of porcine triacylglycerol lipase, FRET: potent inhibition
[2]; read-out: Pancreatic Lipase (Porcine) inhibition at 10 μM (%)
  inhibition at 10 µM: 96%
[3]; literature
  binding to the cannabinoid receptors, previous reports: did not bind
[4]; literature
  inhibition of MAGL activity reported in the literature: poor inhibitors
[5]; [9]
  effect on concentration of free fatty acid in the blood: no effect
  lowering of lipase activity in the blood: small effect
[5]; rodents
  prevention of pancreatic and extrapancreatic fat necrosis: not effective
[6]; literature
  inhibition of FAAH activity reported in the literature: poor inhibitors
[7]; read-out: mDAGLα inhibition at 10 nM (%)
  inhibition at 0.01 µM: 55%
[7]; read-out: mDAGLα inhibition at 100 nM (%)
  inhibition at 0.1 µM: 72%

## CCCCCCCCCCCC(CC1OC(=O)C1CCCCCC)OC(=O)C(NC=O)C(C)CC (stereo not drawn) [Compound 6]
[1]; 10 μM
  Lipoprotein Lipase (Bacterial) inhibition at 10 μM (%): 86%
[2]; 10 μM
  Pancreatic Lipase (Porcine) inhibition at 10 μM (%): 99%
[7]
  mDAGLα inhibition at 10 nM (%): 33%
  potency for mDAGLα relative to analogs of (S)-α-amino acids: clearly less potent
  mDAGLα inhibition at 100 nM (%): 29%
  mDAGLα inhibition at 1000 nM (%): 69%
[7]; 10000 nM
  mDAGLα inhibition at 10000 nM (%): 85%

## CCCCCCCCCCC[C@@H](C[C@@H]1OC(=O)[C@H]1CCCCCC)OC(=O)[C@H](NC=O)[C@@H](C)CC [Compound 7]
[1]; 10 μM
  Lipoprotein Lipase (Bacterial) inhibition at 10 μM (%): 68%
[2]; 10 μM
  Pancreatic Lipase (Porcine) inhibition at 10 μM (%): 95%
[7]
  mDAGLα inhibition at 10 nM (%): 19%
  potency for mDAGLα relative to analogs of (S)-α-amino acids: clearly less potent
  mDAGLα inhibition at 100 nM (%): 51%
  mDAGLα inhibition at 1000 nM (%): 75%
[7]; 10000 nM
  mDAGLα inhibition at 10000 nM (%): 90%

## O=C(Oc1ccc([N+](=O)[O-])cc1)N1CCC(C(O)(c2ccc3c(c2)OCO3)c2ccc3c(c2)OCO3)CC1 [JZL184]
[1]
  Lipoprotein Lipase (Bacterial) inhibition at 10 μM (%): 36%
[2]
  Pancreatic Lipase (Porcine) inhibition at 10 μM (%): 36%
[8]
  effect on DAGL activity reported in the literature: poor inhibitors
[3]
  binding to the cannabinoid receptors, previous reports: did not bind
[4]
  inhibition of MAGL activity reported in the literature: poor inhibitors
[6]
  inhibition of FAAH activity reported in the literature: poor inhibitors
[7]
  mDAGLα inhibition at 10000 nM (%): 3%

— patent publication US20150099800A1, “NOVEL LIPASE INHIBITORS, REPORTER SUBSTRATES AND USES THEREOF” (Northeastern University, priority 2012, published 2015)
